pKi: −log10 of the molar value. Active and inactive are the calls of the source. The rule behind the calls is not given here.
Columns and labels:
[1] = Thermodynamic solubility of the compound in aqueous phosphate buffer at pH 7.4 measured after 24 hrs by UV-spectra reader analysis; type: physicochemical; details: read-out: Therm_solubility
[2] = target: T1, Neuronal acetylcholine receptor subunit alpha-7 (Homo sapiens, UniProt P36544); assay: Displacement of [125I] alpha bungarotoxin from human neuronal alpha7 nAChR expressed in human SH-SY5Y cell membrane measured after 120 mins by Topcount scintillation counting method; type: cell membranes
T1 sequence (P36544 whole entry): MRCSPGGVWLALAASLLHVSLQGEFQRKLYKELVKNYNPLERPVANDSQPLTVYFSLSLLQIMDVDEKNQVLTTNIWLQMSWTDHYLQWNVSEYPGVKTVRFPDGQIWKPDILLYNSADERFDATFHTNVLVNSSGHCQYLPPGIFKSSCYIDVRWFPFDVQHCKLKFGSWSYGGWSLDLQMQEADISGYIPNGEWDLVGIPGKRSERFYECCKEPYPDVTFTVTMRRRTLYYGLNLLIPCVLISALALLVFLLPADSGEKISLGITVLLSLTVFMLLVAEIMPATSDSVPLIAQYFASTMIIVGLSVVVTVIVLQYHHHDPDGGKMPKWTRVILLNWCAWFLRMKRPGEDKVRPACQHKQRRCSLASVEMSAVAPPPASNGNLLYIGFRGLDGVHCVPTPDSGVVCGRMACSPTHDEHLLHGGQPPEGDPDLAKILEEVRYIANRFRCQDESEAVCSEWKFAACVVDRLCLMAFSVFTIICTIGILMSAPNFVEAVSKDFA

[3] = target: T1, Neuronal acetylcholine receptor subunit alpha-7; assay: Displacement of [125I] alpha bungarotoxin from human neuronal alpha7 nAChR expressed in human SH-SY5Y cell membrane at 10 uM measured after 120 mins by Topcount scintillation counting method; type: cell membranes
[4] = Effective permeability of compound measured after 240 mins by PAMPA-BBB assay based UV/Vis spectrophotometer analysis; type: ADME; details: read-out: Peff
[5] = target: T2, Neuronal acetylcholine receptor; alpha4/beta2 (Homo sapiens, UniProt P17787+P43681); assay: Displacement of [125I] alpha bungarotoxin from human neuronal alpha4beta2 nAChR expressed in human SH-SY5Y cell membrane measured after 120 mins by Topcount scintillation counting method; type: cell membranes
T2 sequence (P17787 whole entry): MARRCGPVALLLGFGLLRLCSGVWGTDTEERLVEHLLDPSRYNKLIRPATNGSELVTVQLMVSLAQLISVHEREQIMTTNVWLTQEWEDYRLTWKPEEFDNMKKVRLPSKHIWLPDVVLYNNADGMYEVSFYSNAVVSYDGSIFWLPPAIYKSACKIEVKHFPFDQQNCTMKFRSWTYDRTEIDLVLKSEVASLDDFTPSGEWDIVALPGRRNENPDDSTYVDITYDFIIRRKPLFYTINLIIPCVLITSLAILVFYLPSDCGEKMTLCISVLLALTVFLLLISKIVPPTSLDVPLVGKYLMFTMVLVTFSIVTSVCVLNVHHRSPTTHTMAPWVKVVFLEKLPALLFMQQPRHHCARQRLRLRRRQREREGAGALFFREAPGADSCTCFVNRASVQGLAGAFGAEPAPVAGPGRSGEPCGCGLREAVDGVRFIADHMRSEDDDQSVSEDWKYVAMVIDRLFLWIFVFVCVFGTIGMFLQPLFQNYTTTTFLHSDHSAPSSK
T2 sequence (P43681 whole entry): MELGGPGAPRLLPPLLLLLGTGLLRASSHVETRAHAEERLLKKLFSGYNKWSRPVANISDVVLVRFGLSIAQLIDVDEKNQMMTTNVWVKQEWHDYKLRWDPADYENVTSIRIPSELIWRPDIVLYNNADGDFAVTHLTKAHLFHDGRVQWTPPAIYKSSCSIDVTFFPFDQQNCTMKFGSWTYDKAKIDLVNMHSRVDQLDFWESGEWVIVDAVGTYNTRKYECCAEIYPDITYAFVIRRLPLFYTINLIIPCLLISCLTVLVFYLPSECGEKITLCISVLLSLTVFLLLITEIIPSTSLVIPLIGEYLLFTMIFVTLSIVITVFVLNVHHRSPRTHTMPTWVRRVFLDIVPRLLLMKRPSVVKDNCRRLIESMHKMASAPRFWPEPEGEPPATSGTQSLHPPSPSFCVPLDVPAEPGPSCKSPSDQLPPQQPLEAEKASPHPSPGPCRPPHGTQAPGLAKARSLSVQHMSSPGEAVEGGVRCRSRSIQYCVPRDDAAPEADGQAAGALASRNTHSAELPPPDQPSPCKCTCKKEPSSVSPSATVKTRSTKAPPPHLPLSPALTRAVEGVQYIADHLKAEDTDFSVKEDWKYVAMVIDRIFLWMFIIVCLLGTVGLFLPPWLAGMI

[6] = Displacement of [125I] alpha bungarotoxin from human muscle type nAChR expressed in human TE-671 cell membrane measured after 120 mins by Topcount scintillation counting method; type: cell membranes
RAW264.7 = assay: Cytotoxicity against mouse RAW264.7 cells assessed as cell viability at 10 uM measured after 24 hrs by MTT assay; type: cell-based; details: raw264.7, 24 h
[7] = target: T2, Neuronal acetylcholine receptor; alpha4/beta2; assay: Displacement of [125I] alpha bungarotoxin from human neuronal alpha4beta2 nAChR expressed in human SH-SY5Y cell membrane at 10 uM measured after 120 mins by Topcount scintillation counting method; type: cell membranes
Homo sapiens [8] = organism: Homo sapiens; assay: Selectivity index, ratio of Ki for human neuronal alpha4beta2 nAChR expressed in human SH-SY5Y cell membrane to Ki for human muscle type nAChR expressed in human TE-671 cell membrane; type: cell-based
Homo sapiens [9] = organism: Homo sapiens; assay: Selectivity index, ratio of Ki for human neuronal alpha7 nAChR expressed in human SH-SY5Y cell membrane to Ki for human muscle type nAChR expressed in human TE-671 cell membrane; type: cell-based
[10] = (§1) Antagonist activity at rat alpha1beta1gamma1delta1 nAChR expressed in Xenopus laevis oocytes assessed as inhibition of ACh puff-induced maximum channel current amplitude using UV LED light irradiated compound measured at holding potential of -60 mV by two-electrode voltage clamp technique; type: cell-based; details: oocyte
Oocyte [11] = assay: as §1, with “amplitude by measuring current fraction ratio” for “amplitude”; type: cell-based
TE-671 = assay: Displacement of [125I] alpha bungarotoxin from human muscle type nAChR expressed in human TE-671 cell membrane at 10 uM measured after 120 mins by Topcount scintillation counting method; type: cell membranes; details: filed as antagonist
Oocyte [12] = assay: Antagonist activity at rat alpha1beta1gamma1delta1 nAChR expressed in Xenopus laevis oocytes assessed as inhibition of ACh puff-induced maximum channel current amplitude by measuring current fraction ratio measured at holding potential of -60 mV by two-electrode voltage clamp technique; type: cell-based
[13] = Antagonist activity at rat alpha1beta1gamma1delta1 nAChR expressed in Xenopus laevis oocytes assessed as inhibition of ACh puff-induced maximum channel current amplitude measured at holding potential of -60 mV by two-electrode voltage clamp technique; type: cell-based; details: oocyte
Oocyte [14] = assay: as §1, with “constant UV LED light irradiation-induced channel activation by measuring faster decay of Ach-induced” for “ACh puff-induced maximum”, “amplitude at 0.5 uM” for “amplitude”, “blue” for “UV”; type: cell-based; details: filed as antagonist
Oocyte [15] = assay: as §1, with “at 0.1 to 5 uM measured following irradiation with” for “using”, “irradiation” for “irradiated compound measured”; type: cell-based; details: dose 0.1-5 µM
Oocyte [16] = assay: (§2) Antagonist activity at rat alpha1beta1gamma1delta1 nAChR expressed in Xenopus laevis oocytes assessed as inhibition of ACh puff-induced maximum channel current amplitude at 5 uM measured at holding potential of -60 mV by two-electrode voltage clamp technique; type: cell-based; details: filed as antagonist
Oocyte [17] = assay: as §2, with “measured following irradiation with UV LED light irradiation” for “measured”; type: cell-based
Oocyte [18] = assay: Antagonist activity at rat alpha1beta1gamma1delta1 nAChR expressed in Xenopus laevis oocytes assessed as inhibition of ACh puff-induced maximum channel current amplitude at 0.1 to 5 uM measured at holding potential of -60 mV by two-electrode voltage clamp technique; type: cell-based; details: filed as antagonist, dose 0.1-5 µM

Compound	solubility thermodynamic at 24 h [1] [mM]	pKi [2]	Papp at 4 h [4] [×10⁻⁶ cm/s]	pKi [5]	pKi [6]	Activity (RAW264.7)	inhibition [7] [%]	further results
C[N+]1(Cc2ccc(/N=N/c3ccc(C[N+]4(C)CCCCC4)cc3)cc2)CCCCC1.[I-].[I-]	34.9	< 5.00	< 1	5.82	5.96	Non-Toxic		inhibition [3]: 16%
C[N+]1(Cc2cccc(/N=N/c3cccc(C[N+]4(C)CCCC4)c3)c2)CCCC1.[I-].[I-]	36.3	5.60	< 1	< 5.00	7.38	Non-Toxic	31	Ratio Ki (Homo sapiens [8]): > 240; Ratio Ki (Homo sapiens [9]): 60
C[N+]1(Cc2ccc(/N=N/c3ccc(C[N+]4(C)CCCC4)cc3)cc2)CCCC1.[I-].[I-]	14.8	6.03	< 1	< 5.00	6.70	Non-Toxic		inhibition ([7]; filed as antagonist): 45%
C[N+]1(Cc2cccc(/N=N\c3cccc(C[N+]4(C)CCCCC4)c3)c2)CCCCC1								pKi [10]: 5.59
C[N+]1(Cc2cccc(/N=N\c3cccc(C[N+]4(C)CC=CCC4)c3)c2)CC=CCC1 (centres undefined)								pKi [10]: 6.06; Ratio (Oocyte [11]): 0.35
Clc1ccc([C@H]2C[C@@H]3CC[C@H]2N3)cn1 [(-)-EPIBATIDINE]		6.92						
C[N+]1(Cc2cccc(/N=N/c3ccccc3)c2)CCCCC1.[I-]	5.5	< 5.00	2	< 5.00	< 5.00	Non-Toxic	39	inhibition (TE-671): 45%; inhibition ([3]; filed as antagonist): 48%
C[N+]1(Cc2cccc(/N=N\c3cccc(C[N+]4(C)CCCCCC4)c3)c2)CCCCCC1								pKi [10]: 5.59
C[N+]1(Cc2cccc(/N=N/c3cccc(C[N+]4(C)CC=CCC4)c3)c2)CC=CCC1.[I-].[I-] (centres undefined)	16.3	6.14	< 1	< 5.00	7.00	Non-Toxic	32	Ratio (Oocyte [12]): 0.11; pKi [13]: 6.08
C[N+]1(Cc2cccc(/N=N/c3cccc(C[N+]4(C)CCCCCC4)c3)c2)CCCCCC1.[I-].[I-]	5.9	5.72	< 1	< 5.00	6.66	Non-Toxic	29	pKi [13]: 6.52
C[N+]1(Cc2cccc(/N=N/c3cccc(C[N+]4(C)CCCCC4)c3)c2)CCCCC1.[I-].[I-]	38.4	6.04	< 1	< 5.00	7.46	Non-Toxic	7	Ratio Ki (Homo sapiens [8]): > 290; inhibition (Oocyte [14]): Active; pKi [13]: 6.34; inhibition (Oocyte [15]): inactive; inhibition (Oocyte [16]): Active; Ratio Ki (Homo sapiens [9]): 26; inhibition (Oocyte [17]): inactive; inhibition (Oocyte [18]): Active
